Results from ChEMBL document CHEMBL1146420, “Isolation and characterization of 1,3-dimethylisoguanine from the Bermudian sponge Amphimedon viridis” (J Nat Prod, 1997).
Converted amounts (≈) assume the structure as drawn.

Assay: Cytotoxicity against human ovarian cancer cells
Format: functional, cell-based
Conditions: Cancer cell lines

Cn1c(=N)c2nc[nH]c2n(C)c1=O
IC50: 2.1 µg/mL (≈ 11.7 µM)
